Here are results for 3 molecules from publication PMC10725991, “Kaempferol is a novel antiviral agent against channel catfish virus infection through blocking viral attachment and penetration in vitro” (Frontiers in Veterinary Science, 2023).

The data set concerns CCO cells. Description: Compounds cytotoxicity assay (CCK-8 cell viability). Format: cell-based. The conditions noted are these: channel catfish, 72 h. As for the experimental part:
The cytotoxicity effects of the selected compounds were detected in CCO cells by the cell viability assay. In brief, the CCO cells were seeded in 96-well plates and cultured to reach approximately 90% confluence in each well at 28°C. Subsequently, the monolayer cells were exposed to a maintenance medium with the tested compounds at different concentrations or DMSO for 72 h. Cell Counting Kit-8 (Beyotime, China) was used to measure the cell viability according to the manufacturer’s protocol after 72 h incubation. The optical density at 450 nm was measured using a Spark microplate reader (TECAN, Switzerland). Then, the maximum safe concentration (≥ 90% cell survived, SC90) of compounds to CCO cells was calculated according to the cell viability.
All data were analyzed with GraphPad Prism 8.0. Viral titers were log10 transformed prior to statistical analyses. The SC90 values were calculated using probit analysis. The data are expressed as the arithmetic mean ± standard deviation (SD) and were analyzed by one-way ANOVA with multiple comparisons test. Statistical significance was defined as *p < 0.05, **p < 0.01.
Figure 1 Cytotoxicity assay. The CCO cells were treated with 12 tested compounds with different concentrations in a 96-well plate for 72 h, and then the cell viability was measured by CCK-8. (A) Kaempferol, (B) Tannic acid, (C) P-Coumaric acid, (D) Magnolol, (E) Baicalein, (F) Genistein, (G) Mangiferin, (H) Rosmarinic acid, (I) Artemisinin, (J) Myricetin, (K) Ginkgolic acid, (L) Shikonin. Data represent mean ± SD normalized to values for DMSO treated group. The SC90 was analyzed and calculated using probit analysis. TEXT PRINTED IN THE PICTURE: (A) Kaempferol: SC90 = 47.53 μg/ml | (B) Tannic acid: SC90 = 90.02 μg/ml | (C) P-Coumaric acid: SC90 ≥500 μg/ml | (D) Magnolol: SC90 = 10.02 μg/ml | (E) Baicalein: SC90 = 29.73 μg/ml | (F) Genistein: SC90 = 13.66 μg/ml | (G) Mangiferin: SC90 ≥500 μg/ml | (H) Rosmarinic acid: SC90 = 46.37 μg/ml | (I) Artemisinin: SC90 ≥500 μg/ml | (J) Myricetin: SC90 = 346.19 μg/ml | (K) Ginkgolic acid: SC90 = 10.89 μg/ml | (L) Shikonin: SC90 = 54.44 μg/ml DOUBTS OF THE COPYIST ABOUT THIS PICTURE: All SC90 values are in small print, so 3, 5, 6, 8 and 9 are hard to tell apart / Kaempferol, SC90: 47.53 (5 or 3 uncertain) / Tannic acid, SC90: 90.02 (9 or 8 uncertain) / Baicalein, SC90: 29.73 (9 or 3 uncertain) / Genistein, SC90: 13.66 (3 and 6 uncertain) / Rosmarinic acid, SC90: 46.37 (6 and 3 uncertain) / Myricetin, SC90: 346.19 (3, 6 and 9 uncertain) / Ginkgolic acid, SC90: 10.89 (8 and 9 uncertain) / Shikonin, SC90: 54.44 (5 uncertain) / P-Coumaric acid, Mangiferin, Artemisinin, SC90: sign ≥ or >; 500 (5 uncertain)
On to `O=c1cc(-c2ccccc2)oc2cc(O)c(O)c(O)c12` [Baicalein], for which the “SC90 (maximum safe concentration, ≥ 90% cell survived)” value was determined as 29.73 µg/mL.
On to `C[C@@H]1CC[C@H]2[C@@H](C)C(=O)O[C@@H]3O[C@@]4(C)CC[C@@H]1[C@]32OO4` [Artemisinin, reference compound], for which the “SC90 (maximum safe concentration, ≥ 90% cell survived)” value is at least 500 µg/mL.
With `O=c1c(O)c(-c2cc(O)c(O)c(O)c2)oc2cc(O)cc(O)c12` [Myricetin], the “SC90 (maximum safe concentration, ≥ 90% cell survived)” value stood at 346.19 µg/mL.
